Where only a bound is given, the exact number is not on record here.

By IC50 is commonly meant the concentration that gives 50% inhibition.

One experiment concerns NF-kB. The experiment can be described thus: NF-kB reporter assay in Jurkat cells stimulated with aCD3/aCD28/PMA. As to conditions: Homo sapiens, Jurkat, Jurkat cells, 1 hr compound incubation, aCD3/aCD28/PMA stimulation 4 hr, One-Glo readout; read-out: NF-kB Reporter Assay IC50. The class given is cell-based. The method, then: Jurkat cells were maintained in complete RPMI 1640 media supplemented with 10% FBS. Prior to the assay, 120 nL of the serial diluted compound was added in each well of 384-well flat bottom white plate (Corning #3570) by using liquid handler Echo550. Jurkat cells were harvested by centrifugation at 120 g for 10 min and resuspended in fresh RPMI 1640 media without serum. 30 μL of cells (25,000 cells) were seeded in each well of 384-well plate containing compound. After 1 hr incubation at 37° C. in a 5% CO2 incubator, 10 μL of diluted aCD3/aCD28/PMA (final concentration at 5 μg/mL, 5 μg/mL and 0.03 μg/mL, respectively) in RPMI 1640 without serum were added to each well. After incubation at 37° C. in 5% CO2 for 4 hr, 30 μL of One-Glo reagent (Promega #E6120) was added into each well. The plate was left at room temperature for 5 min and the signal was measured on EnVision (PerkinElmer).
Compounds in which an IC50 was not measured are designated as “N/A”.
Background: In a reporter assay the amount or activity of a reporter protein is the signal.

For another experiment, the target named is T1, MALT1 (Homo sapiens, UniProt Q9UDY8).
T1 construct: Avi-tagged FL MALT-1 (Pharmaron, stored at −70° C.); Avi tag
T1 sequence (Q9UDY8 1-824): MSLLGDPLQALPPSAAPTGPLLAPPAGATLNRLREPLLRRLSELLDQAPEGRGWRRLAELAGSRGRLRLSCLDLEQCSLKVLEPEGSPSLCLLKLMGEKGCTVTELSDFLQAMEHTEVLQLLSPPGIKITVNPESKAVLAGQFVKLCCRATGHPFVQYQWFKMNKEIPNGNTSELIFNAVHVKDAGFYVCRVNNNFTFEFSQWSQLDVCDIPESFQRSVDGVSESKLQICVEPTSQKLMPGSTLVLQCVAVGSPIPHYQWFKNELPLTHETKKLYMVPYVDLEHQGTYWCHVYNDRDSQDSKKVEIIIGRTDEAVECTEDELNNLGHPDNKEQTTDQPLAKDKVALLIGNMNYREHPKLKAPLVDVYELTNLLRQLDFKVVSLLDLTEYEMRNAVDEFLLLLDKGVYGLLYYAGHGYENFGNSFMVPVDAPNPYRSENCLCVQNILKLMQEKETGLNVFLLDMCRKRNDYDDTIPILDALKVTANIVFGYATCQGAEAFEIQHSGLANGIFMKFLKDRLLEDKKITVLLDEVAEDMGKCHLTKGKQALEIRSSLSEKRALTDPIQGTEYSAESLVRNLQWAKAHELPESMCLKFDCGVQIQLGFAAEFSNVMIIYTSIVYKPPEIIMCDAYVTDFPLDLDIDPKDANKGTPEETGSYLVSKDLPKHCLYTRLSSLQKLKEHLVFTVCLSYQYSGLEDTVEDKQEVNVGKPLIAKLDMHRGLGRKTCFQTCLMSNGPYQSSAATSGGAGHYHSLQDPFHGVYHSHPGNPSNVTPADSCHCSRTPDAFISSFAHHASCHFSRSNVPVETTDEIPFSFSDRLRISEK
The experiment can be described thus: MALT-1 Fluorogenic Peptide Cleavage Assay (MALT1 inhibition assay). As to conditions: Avi-tagged FL MALT-1, Ac-LRSR-AMC peptide substrate, 30 min pre-incubation, 90 min reaction. Format: biochemical. On the procedure:
Inhibition of MALT1 activity by the presence of small molecules was evaluated using MALT-1 Fluorogenic Peptide Cleavage Assay. The assay utilizes a quenched AMC-labelled peptide that contains the MALT-1 recognition sequence and cleavage site (LRSR). MALT-1 mediated cleavage of the peptide relieves the quenching and leads to an increase in fluorescence at excitation (342 nm) and emission (441 nm). The following reagents were obtained commercially and used to prepare standard reagent formulations as further described below: […] The standard reagent formulations used in this assay were prepared and stored as follows. A 1.1 M solution of sodium citrate (161.3 g, 500 mL) was prepared and stored at room temperature. A 10% (w/v) CHAPS solution (2.0 g, 20 mL) was prepared and stored at 4° C. A 500 mM HEPES solution having pH of 6.89 was prepared from 200 mL of a 1 M HEPES solution having a pH of 7.5 using concentrated hydrochloric acid and brought to a final volume of 400 mL with […]® H2O. The substrate, 10 mM Ac-LRSR-AMC Peptide, was prepared (10 mg, 1.370 mL DMSO) and stored at -20° C. Compounds were plated to provide a 2% DMSO final concentration using a ProxiPlate-384 Plus F Black 384-shallow well microplate. The assay-ready plates were equilibrated to room temperature. […] DMSO was added only when compound plates had not been DMSO-backfilled to 2%. MALT-1 was thawed and kept on ice. Peptide substrate was thawed on the bench under ambient conditions. A MALT-1 enzyme working stock was prepared from Avi-tagged FL MALT-1 (40 nM in a prepared reagent volume of 16.5 μL) and the reaction buffer (13.0 mL). MALT1 working stock (5 μL) was added to each well of the microplate. MALT-1 was pre-incubated with compounds for 30 minutes at room temperature. […] The plates were covered and incubated on the bench at room temperature for 90 minutes. Fluorescence intensity was determined using a CLARIOstar microplate reader (BMG LABTECH) using the optimised AMC mode. Before taking readings, a 70% gain was applied on the neutral control well. Compound data were normalised to % Inhibition and used to plot sigmoidal concentration response curves to yield various parameters including IC50. […] Compounds in which an IC50 was not measured are designated as “N/A”.

Consider `CCc1ccc2cnn(C)c2c1NS(=O)(=O)c1ccc(-c2cc(C(F)(F)F)n[nH]2)nc1` [Example I-1], for which the 50% inhibitory concentration (IC50) in the experiment on NF-kB and on MALT1 was < 400 nM throughout.

With `CCc1ccc2cnn(C)c2c1NS(=O)(=O)c1ccc(-n2cc(C(F)(F)F)cn2)nc1` [Example I-2], the half-inhibitory concentration (IC50) in the experiment with NF-kB and at MALT1 was < 400 nM throughout.

On MALT1, `CCc1ccc2cnn(C)c2c1NS(=O)(=O)c1ccc(-n2cc(C(F)(F)F)c(C(=O)N(C)C)n2)nc1` [Example I-4] came in with an IC50 of 400 to 1000 nM.

With `CCc1ccc2cnn(C)c2c1NS(=O)(=O)c1ccc(-n2cc(C(F)(F)F)c(C(=O)N3CC(O)C3)n2)nc1` [Example I-5], the IC50 on MALT1 was < 400 nM.

On to `CCc1ccc2cnn(C)c2c1N(C)S(=O)(=O)c1ccc(-n2cc(C(F)(F)F)cn2)nc1` [Example I-6], for which the IC50 in the experiment on NF-kB and against MALT1 was < 400 nM in each case.

Take `CCc1ccc2cnn(C)c2c1NS(=O)(=O)c1ccc(-n2cc(C(F)(F)F)cn2)cn1` [Example I-7, N-(6-Ethyl-1-Methyl-1H-Indazol-7-yl)-5-(4-(Trifluoromethyl)-1H-Pyrazol-1-yl)Pyridine-2-Sulfonamide]: the IC50 with NF-kB and on MALT1 was 1000 to 2500 nM in each case.

Regarding `CCc1ccc2cnn(C)c2c1NS(=O)(=O)c1cnc(-n2cc(C(F)(F)F)cn2)nc1` [Example I-8, N-(6-Ethyl-1-Methyl-1H-Indazol-7-yl)-2-(4-(Trifluoromethyl)-1H-Pyrazol-1-yl)Pyrimidine-5-Sulfonamide], the IC50 in the experiment on NF-kB and against MALT1 was > 2500 nM each time.

As to `CCc1ccc2cnn(C)c2c1NS(=O)(=O)c1ccc(-n2cc(C(F)(F)F)cn2)nn1` [Example I-9, N-(6-Ethyl-1-Methyl-1H-Indazol-7-yl)-6-(4-(Trifluoromethyl)-1H-Pyrazol-1-yl)Pyridazine-3-Sulfonamide], the IC50 with NF-kB and against MALT1 was > 2500 nM each time.

Consider `COc1ccc2cnn(C)c2c1NS(=O)(=O)c1ccc(-n2cc(C(F)(F)F)cn2)nc1` [Example I-10, N-(6-Methoxy-1-Methylindazol-7-yl)-6-[4-(Trifluoromethyl) Pyrazol-1-yl]pyridine-3-Sulfonamide], for which the IC50 in the experiment on NF-kB and against MALT1 was < 400 nM in each case.

With `COc1ccc2cnn(C)c2c1NS(=O)(=O)c1ccc(-n2cc(C3CC3)cn2)nc1` [Example I-11, 6-(4-Cyclopropyl-1H-Pyrazol-1-yl)-N-(6-Methoxy-1-Methyl-1H-Indazol-7-yl)Pyridine-3-Sulfonamide], the IC50 in the experiment with NF-kB and on MALT1 was < 400 nM in each case.

Regarding `COc1ccc2cnn(C)c2c1NS(=O)(=O)c1ccc(-n2cc(Cl)cn2)nc1` [Example I-13, 6-(4-Chloro-1H-Pyrazol-1-yl)-N-(6-Methoxy-1-Methyl-1H-Indazol-7-yl)Pyridine-3-Sulfonamide], the IC50 in the experiment on NF-kB and at MALT1 was < 400 nM in each case.

On to `COc1ccc2cnn(C)c2c1NS(=O)(=O)c1ccc(-n2cc(C)cn2)nc1` [Example I-14, N-(6-Methoxy-1-Methyl-1H-Indazol-7-yl)-6-(4-Methyl-1H-Pyrazol-1-yl)Pyridine-3-Sulfonamide], for which the IC50 with NF-kB and against MALT1 was < 400 nM throughout.

For `COc1ccc2cnn(C)c2c1NS(=O)(=O)c1ccc(-n2cccn2)nc1` [Example I-15, N-(6-Methoxy-1-Methyl-1H-Indazol-7-yl)-6-(1H-Pyrazol-1-yl) Pyridine-3-Sulfonamide], the IC50 in the experiment with NF-kB is < 400 nM; against MALT1, 1000 to 2500 nM.

As to `COc1ccc2cnn(C)c2c1NS(=O)(=O)c1ccc(-n2ccc(C(F)(F)F)n2)nc1` [Example I-16], the IC50 with NF-kB and against MALT1 was < 400 nM throughout.

`Cn1ncc2ccc(C3CC3)c(NS(=O)(=O)c3ccc(-n4cc(Cl)cn4)nc3)c21` [Example I-17]: the IC50 in the experiment with NF-kB and on MALT1 was < 400 nM each time.

For `COc1ccc2cnn(C)c2c1NS(=O)(=O)c1ccc(-c2cc(C(F)(F)F)nn2C)nc1` [Example I-18, N-(6-Methoxy-1-Methylindazol-7-yl)-6-[2-Methyl-5-(Trifluoromethyl)Pyrazol-3-yl]pyridine-3-Sulfonamide], the IC50 in the experiment on NF-kB and on MALT1 was < 400 nM each time.

For the molecule `COc1ccc2cnn(C)c2c1NS(=O)(=O)c1ccc(-c2ccn(C)n2)nc1` [Example I-19, N-(6-Methoxy-1-Methylindazol-7-yl)-6-(1-Methylpyrazol-3-yl)Pyridine-3-Sulfonamide], the results for the IC50 in the experiment on NF-kB and on MALT1 were < 400 nM and > 2500 nM, respectively.

For `COc1ccc2cnn(C)c2c1NS(=O)(=O)c1ccc(-c2cnn(C)c2)nc1` [Example I-20, N-(6-Methoxy-1-Methylindazol-7-yl)-6-(1-Methylpyrazol-4-yl)Pyridine-3-Sulfonamide], the values for the IC50 in the experiment with NF-kB and on MALT1 were 400 to 1000 nM and 1000 to 2500 nM, respectively.

In the case of `COc1ccc2cnn(C)c2c1NS(=O)(=O)c1ccc(-c2cn(C)nn2)nc1` [Example I-21, N-(6-Methoxy-1-Methyl-1H-Indazol-7-yl)-6-(1-Methyl-1H-1,2,3-Triazol-4-yl)Pyridine-3-Sulfonamide], the results for the IC50 in the experiment with NF-kB and on MALT1 were < 400 nM and > 2500 nM, respectively.

Consider `COc1ccc2cnn(C)c2c1NS(=O)(=O)c1ccc(-c2cc(C(F)(F)F)n[nH]2)nc1` [Example I-22, N-(6-Methoxy-1-Methylindazol-7-yl)-6-[5-(Trifluoromethyl)-2H-Pyrazol-3-yl]pyridine-3-Sulfonamide], for which the IC50 with NF-kB and against MALT1 was < 400 nM each time.

Consider `CCc1ccc2cnn(C)c2c1NS(=O)(=O)c1ccc(-c2ccc(C(=O)OC)c(Cl)c2)nc1` [Example I-45, Methyl 2-Chloro-4-(5-(N-(6-Ethyl-1-Methyl-1H-Indazol-7-yl)Sulfamoyl)Pyridin-2-yl)Benzoate], for which, at MALT1, the IC50 is < 400 nM.

Turning to `CCc1ccc2cnn(C)c2c1NS(=O)(=O)c1ccc(-c2ccnc(C(F)(F)F)c2)nc1` [Example I-46, N-(6-Ethyl-1-Methyl-1H-Indazol-7-yl)-2′-(Trifluoromethyl)-[2,4′-Bipyridine]-5-Sulfonamide], the IC50 against MALT1 is < 400 nM.

At MALT1, `CCc1ccc2cnn(C)c2c1NS(=O)(=O)c1ccc(-c2ccncc2)nc1` [Example I-47, N-(6-Ethyl-1-Methyl-1H-Indazol-7-yl)-[2,4′-Bipyridine]-5-Sulfonamide] came in with a half-inhibitory concentration (IC50) of 1000 to 2500 nM.

(Values after patent publication US20240150365A1 (Hotspot Therapeutics, Inc., priority 2022, published 2024).)
